One assay deals with T1, human CCR5 chemokine receptor (Homo sapiens, UniProt P51681).
T1 construct: expressed in transfected cells
T1 sequence (P51681 whole entry): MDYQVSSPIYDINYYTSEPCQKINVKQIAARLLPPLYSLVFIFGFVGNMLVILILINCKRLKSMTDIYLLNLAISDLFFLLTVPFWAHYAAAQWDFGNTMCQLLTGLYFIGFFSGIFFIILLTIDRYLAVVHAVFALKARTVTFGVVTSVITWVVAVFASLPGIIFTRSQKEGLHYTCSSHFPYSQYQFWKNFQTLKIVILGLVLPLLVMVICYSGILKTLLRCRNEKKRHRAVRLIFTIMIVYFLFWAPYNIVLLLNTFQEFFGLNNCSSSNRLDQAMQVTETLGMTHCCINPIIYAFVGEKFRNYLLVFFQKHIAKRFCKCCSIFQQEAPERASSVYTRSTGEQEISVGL
Briefly: Inhibition of [125I]-RANTES binding to CCR5/CHO cells (CCR5 antagonistic activity). Particulars: 40 min, test compound 1 μM, [125I]-RANTES as ligand, room temperature, read-out: Binding Inhibitory Ratio (%). On the procedure: Cloning of CCR5 gene from human spleen cDNA was conducted using the PCR method. Using spleen cDNA (0.5 ng) (TOYOBO CO., LTD, QUICK-Clone cDNA) as a template, PCR was performed in a DNA Thermal Cycler 480 (manufactured by Perkin Elmer) (reaction conditions: 30 cycles of 95° C. for 1 minute, 60° C. for 1 minute, and 75° C. for 5 minutes) by adding primer sets, SEQ. ID NO: 1 (sequence length: 34; sequence type: nucleic acid; chain number: single strand; topology: linear; kind of sequence: other nucleic acid synthetic. DNA) described in Experimental. Example (1) of WO 99/32100, and SEQ ID NO: 2 (sequence length: 34; sequence type: nucleic acid; chain number: single strand; topology: linear; kind of sequence: other nucleic acid synthetic. DNA) described in Experimental. Example (1) of WO 99/32100, (25 pmol, respectively), which were prepared referring to the nucleotide sequence of CCR5 gene, as reported by Samson et al. (Biochemistry 35 (11), 3362-3367 (1996)) and by using TaKaRa. EX Taq (Takara Shuzo). The resultant. PCR product was subjected to agarose gel electrophoresis to collect an approximately 1.0 kb. DNA fragment, which was subjected to an Original TA Cloning Kit (Funakoshi Co., Ltd.) to carry out cloning of CCR5 gene.
The plasmid obtained above was digested with restriction enzymes XbaI (Takara Shuzo Co., Ltd.) and BamHI (Takara Shuzo Co., Ltd.), and then subjected to agarose gel electrophoresis to collect DNA fragment of about 1.0 kb. The DNA fragment and plasmid pcDNA 3.1 (Funakoshi. Co., Ltd.) for expression in animal cells, which was previously digested with XbaI and BamHI, were mixed and ligated by DNA Ligation Kit Ver. 2 (Takara Shuzo Co., Ltd.). The resulting plasmid was subjected to transformation into. E. coli JM109 competent cells (Takara Shuzo Co., Ltd.) to obtain plasmid pCKR5.
CHO-K1 cells were cultured in a 750-ml tissue culture flask (Becton, Dickinson and Company.) using. Ham F12 medium (NIHON PHARMACEUTICAL CO., LTD.) containing 10% fetal bovine serum (Lifetech Oriental) and were collected using 0.5 g/L trypsin-0.2 g/L EDTA (Lifetech Oriental). The cells were washed with PBS (Lifetech Oriental), centrifuged (1000 rpm, 5 minutes), and suspended in PBS. The DNA was introduced into the cells using a Gene Pulser (Bio-Rad Laboratories, Inc.) under the following conditions. Namely, 8×10^6 cells and 10 μg of plasmid pCKR5 for expression of human CCR5 were placed in a cuvette having a 0.4-cm gap, and electroporation was carried out with a voltage 0.25 kV and 960 μF of capacitance. Then, the cells were transferred into Ham's. F12 medium containing 10% fetal bovine serum, and incubated for 24 hours. The cells were collected, centrifuged, and suspended in Ham' F12 medium containing 10% fetal bovine serum and Geneticin (Lifetech Oriental) at a concentration of 500 μg/ml. The suspension of cells was diluted to a concentration of 10^4 cells/ml, and was inoculated onto 96-well plate (Becton Dickinson), to obtain Geneticin-resistant strain.
Then, resulting. Geneticin-resistant strain were cultured on 96-well plate (Becton Dickinson), and CCR5-expressing cells were selected from the resistant cells. Namely, in an assay buffer, (Ham's F12 medium containing 0.5% BSA, and 20 mM HEPES (Wako Pure Chemical Ind., pH 7.2)) to which was added […][125I]-RANTES (Amersham) as a ligand, the cells were subjected to a binding reaction at room temperature for 40 minutes. Wells containing the cells were washed with ice-cooled PBS, and 50 μl/well of 1M NaOH was added and stirred. The cells to which the ligand was bound specifically, i.e., CCR5/CHO cells, were selected by measurement of radioactivity using a […].
The CCR5/CHO cells were inoculated onto 96-well microplate at a concentration of 5×10^4 cells/well, and were cultured for 24 hours. After removal of the medium by aspiration, to each well was added an assay buffer containing a test compound (1 μM), and [125I]/RANTES (Amersham) used as a ligand at a concentration of […]. […]
Consider `CCCCOCCOc1ccc(-c2ccc3c(c2)C=C(C(=O)Nc2ccc(SCc4nncn4C)cc2)CCN3CC(C)C)cc1` [Compound 130, 7-[4-(2-butoxyethoxy)phenyl]-N-[4-(4-methyl-4H-1,2,4-triazol-3-ylmethylthio)phenyl]-1-isobutyl-2,3-dihydro-1H-1-benzazepine-4-carboxamide], for which the inhibition at 1 µM was determined as 100%.

Take `CCCCOCCOc1ccc(-c2ccc3c(c2)C=C(C(=O)Nc2ccc([S+]([O-])Cc4cncn4C4CC4)cc2)CCN3CC(C)C)cc1` (stereo not drawn) [Compound 74, 7-[4-(2-butoxyethoxy)phenyl]-1-isobutyl-N-[4-[(3-cyclopropylimidazol-4-yl)methylsulfinyl]phenyl]-2,3-dihydro-1H-1-benzazepine-4-carboxamide]: the inhibition at 1 µM was 97%.

As to `CCCCOCCOc1ccc(-c2ccc3c(c2)C=C(C(=O)Nc2ccc([S+]([O-])Cc4nccn4CCOC(C)=O)cc2)CCN3CC(C)C)cc1` (stereo not drawn) [Compound 411, [2-[[[4-[[[7-[4-(2-butoxyethoxy)phenyl]-1-isobutyl-2,3-dihydro-1H-1-benzazepin-4-yl]carbonyl]amino]phenyl]sulfinyl]methyl]-1H-imidazol-1-yl]ethyl acetate], the inhibition at 1 µM worked out at 100%.

For `CCCCOCCOc1ccc(-c2ccc3c(c2)C=C(C(=O)Nc2ccc([S+]([O-])Cc4cncn4CCOC)cc2)CCN3CC(C)C)cc1` (stereo not drawn) [Compound 308, 7-[4-(2-butoxyethoxy)phenyl]-1-isobutyl-N-[4-[[[1-(2-methoxyethyl)imidazol-5-yl]methyl]sulfinyl]phenyl]-2,3-dihydro-1-benzazepine-4-carboxamide], the inhibition at 1 µM was 100%.

In the case of `CCCCOCCOc1ccc(-c2ccc3c(c2)C=C(C(=O)Nc2ccc(SCc4nccn4C)c(C)c2)CCN3CC(C)C)cc1` [Compound 355, 7-[4-(2-butoxyethoxy)phenyl]-1-isobutyl-N-[3-methyl-4-[[(1-methylimidazol-2-yl)methyl]sulfanyl]phenyl]-2,3-dihydro-1-benzazepine-4-carboxamide], the inhibition at 1 µM was 99%.

As for `CCCCOCCOc1ccc(-c2ccc3c(c2)C=C(C(=O)Nc2ccc(SCc4cncn4C(C)C)cc2)CCN3CC(C)C)cc1` [Compound 383, 7-[4-(2-butoxyethoxy)phenyl]-1-isobutyl-N-[4-[[[1-isopropylimidazol-5-yl]methyl]sulfanyl]phenyl]-2,3-dihydro-1-benzazepine-4-carboxamide], the inhibition at 1 µM was 93%.

Take `CCCCOCCOc1ccc(-c2ccc3c(c2)C=C(C(=O)Nc2ccc(OCc4nncn4CCC)cc2)CCN3CC(C)C)cc1` [Compound 26, 7-[4-(2-butoxyethoxy)phenyl]-1-isobutyl-N-[4-[(4-propyl-4H-1,2,4-triazol-3-yl)methoxy]phenyl]-2,3-dihydro-1H-1-benzazepine-4-carboxamide]: the inhibition at 1 µM is 97%.

`CCCCOCCOc1ccc(-c2ccc3c(c2)C=C(C(=O)Nc2ccc(SCc4nncn4CCC)nc2)CCN3CC(C)C)cc1` [Compound 53, 7-[4-(2-butoxyethoxy)phenyl]-1-isobutyl-N-[2-(4-propyl-4H-1,2,4-triazol-3-yl)methylthiopyridin-5-yl]-2,3-dihydro-1H-1-benzazepine-4-carboxamide]: the inhibition at 1 µM came out at 98%.

Consider `CCCCOCCOc1ccc(-c2ccc3c(c2)C=C(C(=O)Nc2ccc([S+]([O-])Cc4cncn4CCC)cc2)CCN3CC(C)C)cc1` (stereo not drawn) [Compound 371, 7-[4-(2-butoxyethoxy)phenyl]-1-isobutyl-N-[4-[[[1-propylimidazol-5-yl]methyl]sulfinyl]phenyl]-2,3-dihydro-1-benzazepine-4-carboxamide], for which the inhibition at 1 µM came to 100%.

In the case of `CCCCOCCOc1ccc(-c2ccc3c(c2)C=C(C(=O)Nc2ccc([C@H](O)c4cccc[n+]4[O-])cc2)CCN3CC(C)C)cc1` [Compound 85, 7-[4-(2-butoxyethoxy)phenyl]-N-[4-[(S)-hydroxy(1-oxidopyridin-2-yl)methyl]phenyl]-1-isobutyl-2,3-dihydro-1H-1-benzazepine-4-carboxamide], the inhibition at 1 µM came out at 92%.

For `CCCCOCCOc1ccc(-c2ccc3c(c2)C=C(C(=O)Nc2ccc([S+]([O-])Cc4cccnn4)cc2)CCN3CC(C)C)cc1` (stereo not drawn) [Compound 259, 7-[4-(2-butoxyethoxy)phenyl]-1-isobutyl-N-[4-[(3-pyridazinylmethyl)sulfinyl]phenyl]-2,3-dihydro-1-benzazepine-4-carboxamide], the inhibition at 1 µM was determined as 88%.

On to `CCCCOCCOc1ccc(-c2ccc3c(c2)C=C(C(=O)Nc2ccc(CSc4nncn4C)cc2)CCN3CC(C)C)cc1` [Compound 117, 7-[4-(2-butoxyethoxy)phenyl]-N-[4-(4-methyl-4H-1,2,4-triazol-3-ylthiomethyl)phenyl]-1-isobutyl-2,3-dihydro-1H-1-benzazepine-4-carboxamide], for which the inhibition at 1 µM is 95%.

On to `CCCCOCCOc1ccc(-c2ccc3c(c2)C=C(C(=O)Nc2ccc4nc([S+]([O-])Cc5cncn5CCC)[nH]c4c2)CCN3CC(C)C)cc1` (stereo not drawn) [Compound 313, 7-[4-(2-butoxyethoxy)phenyl]-1-isobutyl-N-[2-[[(1-propylimidazol-5-yl)methyl]sulfinyl]benzimidazol-5-yl]-2,3-dihydro-1-benzazepine-4-carboxamide], for which the inhibition at 1 µM came out at 95%.

`CCCCOCCOc1ccc(-c2ccc3c(c2)C=C(C(=O)Nc2ccc([S+]([O-])Cc4nncn4CCC)cc2)CCN3CCC)cc1` (stereo not drawn) [Compound 141, 7-[4-(2-butoxyethoxy)phenyl]-1-propyl-N-[4-(4-propyl-4H-1,2,4-triazol-3-ylmethylsulfinyl)phenyl]-2,3-dihydro-1H-benzazepine-4-carboxamide]: the inhibition at 1 µM is 100%.

Turning to `CCCCOCCOc1ccc(-c2ccc3c(c2)C=C(C(=O)Nc2ccc([S+]([O-])Cc4nc(C)cc(C)n4)cc2)CCN3CC(C)C)cc1` (stereo not drawn) [Compound 230, 7-[4-(2-butoxyethoxy)phenyl]-N-[4-[[(4,6-dimethyl-2-pyrimidinyl)methyl]sulfinyl]phenyl]-1-isobutyl-2,3-dihydro-1-benzazepine-4-carboxamide], the inhibition at 1 µM was determined as 98%.

Turning to `CCCCOCCOc1ccc(-c2ccc3c(c2)C=C(C(=O)Nc2ccc([S+]([O-])Cc4cccnc4)c(OC)c2)CCN3CC(C)C)cc1` (stereo not drawn) [Compound 240, 7-[4-(2-butoxyethoxy)phenyl]-1-isobutyl-N-[3-methoxy-4-[(3-pyridinylmethyl)sulfinyl]phenyl]-2,3-dihydro-1-benzazepine-4-carboxamide], the inhibition at 1 µM amounted to 97%.

Consider `CCCCOCCOc1ccc(-c2ccc3c(c2)C=C(C(=O)Nc2ccc([S+]([O-])Cc4cccnc4C)cc2)CCN3CC(C)C)cc1` (stereo not drawn) [Compound 251, 7-[4-(2-butoxyethoxy)phenyl]-1-isobutyl-N-[4-[[(2-methyl-3-pyridinyl)methyl]sulfinyl]phenyl]-2,3-dihydro-1-benzazepine-4-carboxamide], for which the inhibition at 1 µM was 99%.

Still in this assay, the particulars now being: test compound 1 μM, [125I]-RANTES as ligand, room temperature, 40 minutes.
As to `CCCCOCCOc1ccc(-c2ccc3c(c2)C=C(C(=O)Nc2ccc([S+]([O-])Cc4cncn4CCC)cc2)CCN3CC(C)C)cc1` (single isomer, unassigned; (-)) [Compound 373, (−)-7-[4-(2-butoxyethoxy)phenyl]-1-isobutyl-N-[4-[[[1-propylimidazol-5-yl]methyl]sulfinyl]phenyl]-2,3-dihydro-1-benzazepine-4-carboxamide], the “Binding Inhibitory Ratio (%)” value was determined as 94%.

The record behind these values is patent US7262185B2, “Benzazepine derivative, process for producing the same, and use” (Takeda Chemical Industries Ltd., priority 2001, dated 2007).
